# Assay results published in patent publication US10377770B2 (Novartis AG, priority 2015, dated 2019).
# Molecular target: C-Raf FL (full length CRAF with Y340E and Y341E activating mutations, co-expressed with h14-3-3 zeta) (Homo sapiens (Human), UniProt P04049, Y340E/Y341E)
# Assay: In vitro Raf activity determination, AlphaScreen p-MEK readout, c-Raf (C-Raf FL)
# Type: biochemical
# Conditions: c-Raf approximately 4 nM, ATP 1 μM, pre-incubation 60 minutes, reaction 1 hour
# Summary of the method: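 Phosphorylation of kinase-dead biotinylated MEK1 (~10 nM) by C-Raf FL (~4 nM) read by AlphaScreen luminescence with anti-phospho-MEK1/2 after EDTA stop. ATP was 1 μM, with a 1 h reaction at room temperature. Compounds were pre-incubated with enzyme and substrate for 60 min in Tris/MgCl2 buffer, pH 7.5.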
# C-Raf FL (full length CRAF with Y340E and Y341E activating mutations, co-expressed with h14-3-3 zeta), sequence (P04049 whole entry Y340E/Y341E): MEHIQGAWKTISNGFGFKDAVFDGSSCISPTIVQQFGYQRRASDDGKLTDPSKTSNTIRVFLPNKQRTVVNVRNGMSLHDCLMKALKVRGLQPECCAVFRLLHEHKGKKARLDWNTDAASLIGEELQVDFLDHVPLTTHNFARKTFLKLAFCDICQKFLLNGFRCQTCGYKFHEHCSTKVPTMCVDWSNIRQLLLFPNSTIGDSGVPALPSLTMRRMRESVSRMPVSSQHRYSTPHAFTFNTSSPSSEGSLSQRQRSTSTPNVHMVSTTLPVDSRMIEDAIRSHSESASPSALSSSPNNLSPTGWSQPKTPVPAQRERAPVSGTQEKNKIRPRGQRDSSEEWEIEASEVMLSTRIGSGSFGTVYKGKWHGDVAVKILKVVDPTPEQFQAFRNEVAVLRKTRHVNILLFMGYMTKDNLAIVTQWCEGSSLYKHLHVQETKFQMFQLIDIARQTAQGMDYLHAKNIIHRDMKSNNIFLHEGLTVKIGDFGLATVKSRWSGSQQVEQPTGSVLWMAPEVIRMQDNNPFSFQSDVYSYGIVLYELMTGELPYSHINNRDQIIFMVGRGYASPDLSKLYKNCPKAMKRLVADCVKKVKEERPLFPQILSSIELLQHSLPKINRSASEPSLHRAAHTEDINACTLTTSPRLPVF
# C-Raf FL (full length CRAF with Y340E and Y341E activating mutations, co-expressed with h14-3-3 zeta), sequence (P63104 whole entry partner): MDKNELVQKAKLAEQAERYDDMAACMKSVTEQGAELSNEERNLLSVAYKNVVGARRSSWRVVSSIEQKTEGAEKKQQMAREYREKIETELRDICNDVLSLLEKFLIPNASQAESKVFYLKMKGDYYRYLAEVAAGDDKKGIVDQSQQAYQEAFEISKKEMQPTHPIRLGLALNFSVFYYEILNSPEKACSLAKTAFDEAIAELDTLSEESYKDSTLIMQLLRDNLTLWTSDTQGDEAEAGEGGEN
row,SMILES,IC50 [nM]
1,"Cc1ccc(NC(=O)c2ccnc(C(C)(F)F)c2)cc1-c1cnc2c(c1)N1CCOC[C@@H]1C(F)(F)[C@@H]2O [Example 162, N-(3-((4aR,6R)-5,5-difluoro-6-hydroxy-1,2,4,4a,5,6-hexahydro-[1,4]oxazino[4,3-a][1,5]naphthyridin-9-yl)-4-methylphenyl)-2-(1,1-difluoroethyl)isonicotinamide]",0.093
2,"Cc1ccc(NC(=O)c2ccnc(C(C)(F)F)c2)cc1-c1cnc2c(c1)N1CCOC[C@H]1C(F)(F)[C@H]2O [Example 164, N-(3-((4aS,6S)-5,5-difluoro-6-hydroxy-1,2,4,4a,5,6-hexahydro-[1,4]oxazino[4,3-a][1,5]naphthyridin-9-yl)-4-methylphenyl)-2-(1,1-difluoroethyl)isonicotinamide]",0.43
3,"Cc1ccc(NC(=O)c2ccnc(C(C)(F)F)c2)cc1-c1cnc2c(c1)N1CCOC[C@@H]1C(F)(F)[C@@H]2O [Example 165, N-(3-((4aR,6R)-5,5-difluoro-6-hydroxy-1,2,4,4a,5,6-hexahydro-[1,4]oxazino[4,3-a][1,5]naphthyridin-9-yl)-4-methylphenyl)-2-(1,1-difluoroethyl)isonicotinamide]",0.62
4,"Cc1ccc(NC(=O)c2ccnc(C(F)(F)F)c2)cc1-c1cnc2c(c1)N1CCOC[C@H]1C(F)(F)[C@H]2O [Example 167, N-(3-((4aS,6S)-5,5-difluoro-6-hydroxy-1,2,4,4a,5,6-hexahydro-[1,4]oxazino[4,3-a][1,5]naphthyridin-9-yl)-4-methylphenyl)-2-(trifluoromethyl)isonicotinamide]",0.077
5,"Cc1ccc(NC(=O)c2ccnc(C(F)(F)F)c2)cc1-c1cnc2c(c1)N1CCOC[C@@H]1C(F)(F)[C@@H]2O [Example 168, N-(3-((4aR,6R)-5,5-difluoro-6-hydroxy-1,2,4,4a,5,6-hexahydro-[1,4]oxazino[4,3-a][1,5]naphthyridin-9-yl)-4-methylphenyl)-2-(trifluoromethyl)isonicotinamide]",0.77
6,"CCN1C(=O)[C@H]2COCC[C@@H]2c2cc(-c3cc(NC(=O)c4ccnc(C(F)(F)F)c4)ccc3C)cnc21 [Example 236, N-(3-((4aR,10bS)-6-ethyl-5-oxo-1,4,4a,5,6,10b-hexahydro-2H-pyrano[3,4-c][1,8]naphthyridin-9-yl)-4-methylphenyl)-2-(trifluoromethyl)isonicotinamide]",0.3
7,"CCN1C(=O)Cc2nncn2-c2cc(-c3cc(NC(=O)c4ccnc(C(F)(F)F)c4)ccc3C)cnc21 [Example 237, N-(3-(6-ethyl-5-oxo-5,6-dihydro-4H-pyrido[2,3-b][1,2,4]triazo1o[4,3-d][1,4]diazepin-9-yl)-4-methylphenyl)-2-(trifluoromethyl) isonicotinamide]",1.3
8,"CCN1C(=O)Cc2nncn2-c2cc(-c3cc(NC(=O)c4cccc(C(F)(F)F)c4)cnc3C)cnc21 [Example 238, N-(5-(6-ethyl-5-oxo-5,6-dihydro-4H-pyrido[2,3-b][1,2,4]triazo1o[4,3-d][1,4]diazepin-9-yl)-6-methylpyridin-3-yl)-3-(trifluoromethyl) benzamide]",2.7
9,"CCN1C(=O)C(C)(C)c2nncn2-c2cc(-c3cc(NC(=O)c4ccnc(C(F)(F)F)c4)ccc3C)cnc21 [Example 239, N-(3-(6-ethyl-4,4-dimethyl-5-oxo-5,6-dihydro-4H-pyrido[2,3-b][1,2,4]-triazolo[4,3-d][1,4]diazepin-9-yl)-4 methylphenyl)-2-(trifluoromethyl) isonicotinamide]",4.7
10,"CCN1C(=O)C(C)(C)c2nncn2-c2cc(-c3cc(NC(=O)c4cccc(C(F)(F)F)c4)cnc3C)cnc21 [Example 240, N-(5-(6-ethyl-4,4-dimethyl-5-oxo-5,6-dihydro-4H-pyrido[2,3-b][1,2,4]triazolo[4,3-d][1,4]diazepin-9-yl)-6-methylpyridin-3-yl)-3-(trifluoromethyl) benzamide]",10.6
11,"CCN1Cc2nncn2-c2cc(-c3cc(NC(=O)c4ccnc(C(F)(F)F)c4)ccc3C)cnc2C1=O [Example 241, N-(3-(5-ethyl-6-oxo-5,6-dihydro-4H-pyrido[2,3-f][1,2,4]-triazolo[4,3-a][1,4]diazepin-9-yl)-4-methylphenyl)-2-(trifluoromethyl) isonicotinamide]",9.5
12,"CCN1C(=O)N2COCCC2(C)c2cc(-c3cc(NC(=O)c4ccnc(C(F)(F)F)c4)ccc3C)ccc21 (centres unmarked) [Example 242, N-(3-(7-ethyl-11b-methyl-6-oxo-1,2,4,6,7,11b-hexahydro-[1,3]oxazino[3,4-c]quinazolin-10-yl)-4-methylphenyl)-2-(trifluoromethyl) isonicotinamide]",0.3
13,CCN1C(=O)N2COCCC2(C)c2cc(-c3cc(NC(=O)c4cccc(C(F)(F)F)c4)cnc3C)ccc21 (centres unmarked) [Example 243],0.6
14,"CCN1C(=O)N2COCCC2(C)c2cc(-c3cc(NC(=O)c4ccnc(C(F)(F)F)c4)ccc3C)ccc21 (centres unmarked) [Example 244, N-(3-(7-ethyl-11b-methyl-6-oxo-1,2,4,6,7,11b-hexahydro-[1,3]oxazino[3,4-c]quinazolin-10-yl)-4-methylphenyl)-2-(trifluoromethyl) isonicotinamide]",0.1
15,"CCN1C(=O)N2COCCC2(C)c2cc(-c3cc(NC(=O)c4cccc(C(F)(F)F)c4)cnc3C)ccc21 (centres unmarked) [Example 245, N-(5-(7-ethyl-11b-methyl-6-oxo-1,2,4,6,7,11b-hexahydro-[1,3]oxazino[3,4-c]quinazolin-10-yl)-6-methylpyridin-3-yl)-3-(trifluoromethyl) benzamide]",0.2
16,"CCN1C(=O)C2CCOCCC2c2cc(-c3cc(NC(=O)c4ccnc(C(F)(F)F)c4)ccc3C)cnc21 (stereo not drawn) [Example 246, N-(3-((5a, 11b-cis)-7-ethyl-6-oxo-1,2,4,5,5a,6,7,11b-octahydrooxepino [4,5-c][1,8]naphthyridin-10-yl)-4-methylphenyl)-2-(trifluoromethyl) isonicotinamide]",0.2
17,"CCN1C(=O)C2CCOCCC2c2cc(-c3cc(NC(=O)c4ccnc(C(F)(F)F)c4)ccc3C)cnc21 (stereo not drawn) [Example 247, N-(3-((5a, 11b-cis)-7-ethyl-6-oxo-1,2,4,5,5a,6,7,11b-octahydrooxepino 4,5-c][1,8]naphthyridin-10-yl)-4-methylphenyl)-2-(trifluoromethyl) isonicotinamide]",0.3
18,CCN1C(=O)C2CCOCCC2c2cc(-c3cc(NC(=O)c4ccnc(C(F)(F)F)c4)ccc3C)cnc21 (centres unmarked) [Example 248],0.5
19,"CCN1C(=O)C2CCOCCC2c2cc(-c3cc(NC(=O)c4ccnc(C(F)(F)F)c4)ccc3C)cnc21 (stereo not drawn) [Example 249, N-(3-((5a, 11b- trans)-7-ethyl-6-oxo-1,2,4,5,5a,6,7,11boctahydrooxepino [4,5-c][1,8]naphthyridin-4,5-10-yl)-4-methylphenyl)-2-(trifluoromethyl) isonicotinamide]",0.1
20,"CCN1C(=O)C2CCOCCC2c2cc(-c3cc(NC(=O)c4cccc(C(F)(F)F)c4)cnc3C)cnc21 (stereo not drawn) [Example 250, N-(5-((5a, 11b- trans)-7-ethyl-6-oxo-1,2,4,5,5a,6,7,11b-octahydrooxepino [4,5-c][1,8]naphthyridin-10-yl)-6-methylpyridin-3-yl)-3-(trifluoromethyl) benzamide]",0.3
